Tests used:
[1] = system: Human Umbilical Vein Endothelial Cells (HUVECs); experiment: Proliferation of primary HUVECs, MTS method; format: cell-based; details: VEGF + ZY1, even at low concentration (1 μg/μl), 24 hours incubation
Method: The MTS method was used as follows:
Human Umbilical Vein Endothelial Cells (HUVECs) (purchased from ScienCell Co.) were inoculated onto a 96-well plate with an inoculation concentration of 4×10^4/ml. After cells had adhered to the wall, serum-free culture medium of ECM were added and the cells were cultivated at 37° C. for 24 hours. Then the serum-free culture medium ECM was added into each well in negative control group. VEGF (10 ng/ml) (purchased from Sigma Co.) in positive control group, VEGF (10 ng/well) ZY1 small peptide having different concentrations (1 μg/μl, 10 μg/μl, 25 μg/μl, 50 μg/μl) in treatment group were added as well. After 24 hours incubation, 20 μl MTS solution (purchased from Promega Corporation) was added in each well. After incubation at 37° C. for 4 hours, the absorbance at 490 nm for each well was measured by using Enzyme-linked Immunoassay Analysis (Bio-Rad Co.). The proliferation activity of cells was determined according to OD490. Finally, SPSS11.0.1 was used for statistical analysis.
Derived Polypeptides were prepared as follows, and the inhibition effect on proliferation of Human Umbilical Vein Endothelial Cells HUVECs was determined according to the methods in Example 6.

[2] = system: Human Umbilical Vein Endothelial Cells (HUVECs); experiment: Lumen formation of primary HUVECs, Matrigel method; format: cell-based; details: ZY1 at different concentrations (1, 10, 25, 50 μg/μl), VEGF 50 ng/ml, 6 hours of treatment
Method: The Matrigel method was used as follows:
A 50 μl/well Matrigel (purchased from BD Co.) was added into a 96-well plate before incubation at 37° C. for 30 min. After solidified, the primary HUVECs were inoculated onto the surface of the Matrigel with an inoculation concentration of 8×10^6/ml. Serum-free culture medium of ECM in negative control group, VEGF (50 ng/ml) (purchased from Sigma Co.) in positive control group, and ZY1 small peptide having different concentrations (1 μg/μl, 10 μg/μl, 25 μg/μl, 50 μg/μl) in treatment group were added into the wells. The incubation was continued at 37° C. Photos were taken for the 3 randomized fields of cells in the plate under the microscope (Magnification was 200 fold.) after 6 hours of treatment and the number of formed lumina was counted. Finally, SPSS11.0.1 was used for statistical analysis.

[3] = system: pathological angiogenesis in the mouse retina; experiment: Retinal angiogenesis in hypoxia-induced mice; format: in vivo, C57BL/6 mice; details: intravitreal, eyeballs removed 5 days later, P<0.01
Method: Model of retinal angiogenesis in hypoxia-induced mice was used and the methods were as follows:
Seven days after birth, C57BL/6 mice were placed together with their breast feeding mother into an environment having a 75%±2% oxygen concentration. The mice were taken out 5 days later, and were injected intravitreally with […] ZY1 small peptides of low concentration (500 ng/μl), moderate concentration (1 μg/μl), high concentration (2 μg/μl) or control sample PBS. Mice were placed in an environment having normal air for further feeding, thereby forming the mice model of retinopathy induced by hypoxia. The eyeballs were removed 5 days later, fixed in 4% paraformaldehyde, embedded in paraffin, cut into sections, and stained with HE. The amount of the nucleus of the vascular endothelial cells in retina was counted under the optical microscope (Magnification was 200 fold). SPSS11.0.1 was used for statistical analysis.

[4] = system: Human Umbilical Vein Endothelial Cells (HUVECs); experiment: Migration of primary HUVECs, Wound Healing method; format: cell-based; details: VEGF (10 ng/ml) + ZY1 1, 10, 25, 50 μg/μl, 6 hours
Method: The Wound Healing method was used as follows:
Primary Human Umbilical Vein Endothelial Cells (HUVECs) (purchased from ScienCell Co.) were inoculated onto a 12-well plate with an inoculation concentration of 1×10^5/ml. After cells had adhered to the wall and grown to 80%-90% of confluence, serum-free culture medium of ECM were added before cultivation at 37° C. for 24 hours. A “+” scratch was carved with the tip of a 200 μl pipettor in each well and serum-free culture medium ECM were added in negative control group. VEGF (10 ng/ml) (purchased from Sigma Co.) in positive control group, and VEGF (10 ng/ml)+ZY1 small peptide having different concentrations (1 μg/μl, 10 μg/μl, 25 μg/μl, 50 μg/μl) in treatment group were added as well. The cultivation was continued. Photos were taken for the scratches of the cells in the 12-well plate at 0 hour and 6 hour, respectively. The average width of the scratches was calculated. The migration activity was determined according to the scratch width. Finally, SPSS11.0.1 was used for statistical analysis.

[5] = system: Human Umbilical Vein Endothelial Cells (HUVECs); experiment: Chemotaxis of primary HUVECs, Transwell Chamber method; format: cell-based; details: ZY1 10, 25, 50 μg/μl in upper chamber, VEGF (50 ng/ml) in lower chamber, 24 hours
Method: The Transwell Chamber method was used as follows:
HUVECs (purchased from ScienCell Co.) were inoculated onto the upper chamber of Transwell chambers with an inoculation concentration of 6×10^5/ml. Serum-free culture medium of ECM or ZY1 small peptide having different concentrations (10 μg/μl, 25 μg/μl, 50 μg/μl) were added into individual upper chambers. VEGF (50 ng/ml) (purchased from Sigma Co.) was added/not added into the lower chamber as a chemotactic factor. After incubation at 37° C. for 24 hours, the cells on upper surface of Transwell Chamber membrane were wiped and the membrane was washed with PBS. Then the membrane was fixed in 4% paraformaldehyde solution and the lower surface of membrane was stained with hematoxylin, cut and then sections were prepared. Five fields on the chamber membrane under the optical microscope (Magnification was 400 fold) were randomly taken for photograph and the number of cells nucleus was counted. The chemotaxis was determined according to the number of cells nucleus on the lower surface of chamber membrane. Finally, SPSS11.0.1 was used for statistical analysis.

[6] = system: pathological angiogenesis in the mouse cornea; experiment: Corneal stroma micropocket model, VEGF-induced pathological angiogenesis in the mouse cornea; format: in vivo, C57BL/6 mice; details: 5 days after operation, compared with VEGF group
Method: Model of the corneal stroma micropocket was used and the methods were as follows:
Male C57BL/6 mice (aged 4-5 weeks) were intraperitoneally injected with 2% pentobarbital (about 0.1 ml/PCS) for anesthesia. 4% hydrochloric oxybuprocaine ophthalmic solution was locally administrated. Under the stereo microscope, OT syringe needle and 2 ml syringe needle was used to perform a blunt dissection between the layers of corneal stroma at 0.8-1 mm from corneoscleral limbus. A pouch of about 0.6×0.8 mm was formed. Slow-release tablets (mixture of 1:1 (v/v) of 12% poly Hydroxyethyl methacrylate (polyHEMA): sucralfate) were planted respectively into the micropocket, including negative control group (blank tablet), positive control group (VEGF group: 320 ng/μl, 160 ng/tablet), and treatment group (VEGF+ZY1 small peptides of 1 μg/tablet low concentration, 5 μg/tablet moderate concentration, or 10 μg/tablet high concentration). 5 days after operation, the length of the longest new vessel (VL is the length of the longest new blood vessel grown from limbus to the cornea), and the clock hours of corneal neovascularization (CN represents the accumulative clock hours of corneal neovascularization) were observed. Neovascularization area were calculated as followed: Area (mm^2)=0.5*3.14*VL (mm)*CN*0.4 (mm). […] was used for statistical analysis.

## CVSLLRCTGCC GDENLHCVPV (CVSLLRCTGCCGDENLHCVPV; angiogenesis-inhibiting peptide ZY1)
[1]
  inhibition of proliferation of HUVECs (OD490): significantly inhibited
[2]
  inhibition of lumen formation of primary HUVECs (number of formed lumina): significant inhibition effect
[3]; high concentration (2 μg/μl)
  inhibition of pathological angiogenesis in mouse retina (amount of nucleus of vascular endothelial cells): significantly inhibited
[3]; moderate concentration (1 μg/μl)
  inhibition of pathological angiogenesis in mouse retina (amount of nucleus of vascular endothelial cells): significantly inhibited
[4]
  inhibition of migration of primary HUVECs (scratch width): significantly inhibited
[5]
  inhibition of chemotaxis of HUVECs (number of cell nuclei on lower surface of chamber membrane): significant inhibition effect
[6]; high concentration (10 μg/tablet) + VEGF 160 ng/tablet
  inhibition of corneal angiogenesis (neovascularization area): significantly inhibited
[6]; moderate concentration (5 μg/tablet) + VEGF 160 ng/tablet
  inhibition of corneal angiogenesis (neovascularization area): significantly inhibited

From patent US9023795B2, “Angiogenesis-inhibiting peptide and application thereof” (Shanghai First People's Hospital, priority 2010, dated 2015)
